Results as given in patent US11707439B2, “Parenteral treatments involving aminoadamantane derivatives” (Shinkei Therapeutics, Inc., priority 2019, dated 2023).
Where a name gives a salt, the structure may show the parent alone. Read-outs that look alike come from different tables or passages of the source.

Assays:
[1] = Osmolality of amantadine hydrochloride solution in sterile water for injection; assay type: physicochemical
Source text: Examples of tonicity agents that can be used in the compositions of the present invention include, but are not limited to, sodium chloride, mannitol, dextrose, potassium chloride, sodium chloride and mixtures thereof. The tonicity agents may be present in an amount so as to provide osmolality of from about 250 mOsm/kg to about 350 mOsm/kg, particularly from 280 mOsm/kg to 320 mOsm/kg.

[2] = Pharmacokinetic study in 10 healthy subjects: intravenous infusion vs oral capsules; assay type: in vivo, human; settings: for Tmax / Cmax / half-life: fasted healthy subjects
[3] = test system: fluid percussion injury; settings: chronic amantadine-pumping infusion, cited from earlier work
[4] = postmortem brain tissue of 21 patients previously treated with amantadine sulfate; cited from earlier work
[5] = test system: persistent vegetative state; settings: single patient; 100 mg/day intravenously increased to 300 mg/day, then enteral; cited from earlier work
[6] = continuous subcutaneous administration, Parkinson's disease patients; cited from earlier work

For `NC12CC3CC(CC(C3)C1)C2` [amantadine hydrochloride], which Osmolality ([1]; 10 mg/ml solution in sterile water for injection) is on record?
Its Osmolality is 97 mOsm/kg.

What about the Osmolality ([1]; 20 mg/ml solution in sterile water for injection) of the same compound?
The Osmolality was 192 mOsm/kg.

What about the Osmolality ([1]; 30 mg/ml solution in sterile water for injection) of the same compound?
Its Osmolality is 283 mOsm/kg.

And the Osmolality ([1]; 40 mg/ml solution in sterile water for injection)?
Its Osmolality is 369 mOsm/kg.

And the Osmolality ([1]; 50 mg/ml solution in sterile water for injection)?
Its Osmolality is 509 mOsm/kg.

What about the Osmolality ([1]; 75 mg/ml solution in sterile water for injection) of the same compound?
Its Osmolality is 671 mOsm/kg.

Which “Peak and total plasma exposures following the infusion, lower than reference oral dose” value ([2]; 50 mg intravenous infusion vs 200 mg oral dose) does the source give for `NC12CC3CC(CC(C3)C1)C2` [amantadine, 1-amantanamine] here?
The value was “approximately 5 fold”.

And the Tmax ([2]; human, plasma, iv, 50 mg, Treatment A: single 50 mg dose, intravenous infusion over 180 minutes, plasma, read-out: mean Tmax)?
The Tmax was 4.1 h.

And the Tmax ([2]; human, plasma, iv, 50 mg, Treatment A: single 50 mg dose, intravenous infusion over 180 minutes, plasma, read-out: median Tmax)?
The Tmax was 4 h.

And the Tmax ([2]; human, plasma, po, 200 mg, Treatment B: single 200 mg oral dose as 2×100 mg capsules, plasma, read-out: mean Tmax)?
The Tmax was 3.6 h.

What about the Tmax ([2]; human, plasma, po, 200 mg, Treatment B: single 200 mg oral dose as 2×100 mg capsules, plasma, read-out: median Tmax) of the same compound?
Its Tmax is 2.8 h.

And the bioavailability ([2]; human, plasma, 200 mg oral, from LSGM A/B ratio of CLIV to CLIV/F, read-out: bioavailability of the oral capsule)?
The bioavailability was 122%.

What about the Cmax ([2]; human, Treatment A: single 50 mg dose, intravenous infusion over 180 minutes, plasma) of the same compound?
Its Cmax is 142 ng/mL.

What about the half-life ([2]; human, Treatment A: single 50 mg dose, intravenous infusion over 180 minutes, plasma, read-out: mean apparent first-order elimination half-life (T1/2) (converted)) of the same compound?
Its half-life is 14 h.

And the Cmax ([2]; human, Treatment B: single 200 mg oral dose as 2×100 mg capsules, plasma)?
The Cmax was 643 ng/mL.

And the half-life ([2]; human, Treatment B: single 200 mg oral dose as 2×100 mg capsules, plasma, read-out: mean T1/2 (converted))?
The half-life was 14.6 h.

And the dopamine-release deficits ([3]; rats after fluid percussion injury)?
The dopamine-release deficits was “reversed”.

What about the “behavioral impairment after fluid percussion injuries” value ([3]; rats) of the same compound?
The value was “ameliorated”.

And the “elimination half-life from brain tissue” value [4]?
Its value is “much longer than from blood”.

What about the “clinical outcome in persistent vegetative state” value [5] of the same compound?
Its value is “stunning awakening of the patient, fully orientated within days”.

For `CN1CCc2cccc3c2[C@H]1Cc1ccc(O)c(O)c1-3` [apomorphine], which “eosinophilia and orthostatic hypotension, share of PD patients” value [6] is on record?
The value was “less than 5%”.
